Columns and labels:
[1] = tested on: COLO 205 colorectal tumor cells; assay: Tumor cell viability inhibition assay (CellTiter-Glo 2.0, 72 hours); assay type: cell-based; settings: Homo sapiens, COLO 205, 72 h, COLO 205 cell viability
Summary of the method: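 COLO 205 cells (1500/well, RPMI-1640 + 10% FBS) exposed for 72 h to an 11-point, 4-fold dilution series; cellular ATP read by CellTiter-Glo 2.0 luminescence. Data normalized to DMSO and maximum-inhibition controls; IC50 from 4-parameter curve fit.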

[2] = tested on: cyclin D1 protein levels in COLO 205 cells; assay: Cyclin D1 cellular inhibition assay (HTRF, 6 hours); assay type: cell-based; settings: Homo sapiens, COLO 205, 6 h, 6 hours of compound treatment, Cyclin D1 protein levels by HTRF, read-out: COLO 205 6 h Cyclin D1 TR-FRET IC50
Experimental: The effect of compound treatment on cyclin D1 protein levels in COLO 205 cells was assessed, as follows. Test compound plates were prepared with a Tecan D300e Digital Dispenser as 11-point concentration-response curves with a final DMSO concentration of 1%. COLO 205 (ATCC, CCL-222) colorectal tumor cells were seeded to assay-ready plates in RPMI-1640 medium supplemented with 10% FBS at 20,000 cells in a volume of 6 microliters per well. After 6 hours of compound treatment, cells were lysed and Cyclin D1 protein levels were assessed by an HTRF assay (PerkinElmer #64CYCD1ITPEG), according to the manufacturer's protocol. Time-resolved fluorescence was measured using a Clariostar Plus microplate reader (BMG Labtech) or equivalent. After normalization to the average of DMSO control and maximum inhibition control wells, concentration-response data were plotted and standard 4-parameter curve fitting (GraphPad Prism v9.4.1) was utilized to determine IC50 values.

human eIF4E protein = molecular target: T1, human eIF4E protein (Homo sapiens, UniProt P06730); assay: Biochemical competitive binding assay (TR-FRET competition, EDA-m7GDP-ATTO-647N probe); settings: read-out: hEIF4E TR-FRET IC50
T1 construct: purchased Novus NBP-45314
Summary of the method: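 His-tagged human eIF4E (4 nM) was preincubated with Eu-anti-His antibody (2.5 nM) and added to compound (11-point, 4-fold dilutions) for 15 min. Then 5 nM EDA-m7GDP-ATTO-647N was added for 15 min, in HEPES pH 7.5, 100 mM KCl. The 665/620 TR-FRET ratio was normalized to controls, and IC50 was taken from 4-parameter fits.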

T1 sequence (P06730 whole entry): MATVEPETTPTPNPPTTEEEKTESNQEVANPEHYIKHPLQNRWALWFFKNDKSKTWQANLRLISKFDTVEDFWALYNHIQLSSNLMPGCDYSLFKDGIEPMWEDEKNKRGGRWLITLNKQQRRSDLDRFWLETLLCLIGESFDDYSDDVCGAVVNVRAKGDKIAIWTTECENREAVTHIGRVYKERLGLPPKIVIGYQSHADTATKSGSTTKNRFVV

SMILES | IC50 [1] [µM] | IC50 [2] [µM] | IC50 (human eIF4E protein) [µM]
COc1cc(CN(C)C2CCc3nc(C)n(CCOc4ccc(Cl)cc4-c4cc(C)nc5c(C(=O)O)csc45)c(=O)c3C2)ccn1 (single isomer, unassigned) [Compound 217] | < 5 | < 5 | < 0.1
Cc1cc(-c2cc(Cl)ccc2OCCn2c(C)nc3c(c2=O)C[C@@H](N2CCC[C@@]4(C2)CC4(F)F)CC3)c2scc(C(=O)O)c2n1 (single isomer, unassigned) [Compound 141] | < 5 | < 5 | < 0.1
Cc1cc(-c2cc(Cl)ccc2OCCn2c(C)nc3c(c2=O)C[C@H](N2C[C@H]4CC(F)(F)[C@H]4C2)CC3)c2scc(C(=O)O)c2n1 (single isomer, unassigned) [Compound 147] | < 5 | < 5 | < 0.1
Cc1cc(-c2cc(Cl)ccc2OCCn2c(C)nc3c(c2=O)CC(N(C)Cc2ccc(=O)[nH]c2)CC3)c2scc(C(=O)O)c2n1 (single isomer, unassigned) [Compound 235] | > 20 | > 20 | < 0.1
Cc1cc(-c2cc(Cl)ccc2OCCn2c(C)nc3c(c2=O)CC(N2CCC4(C2)CC(F)(F)C4)CC3)c2scc(C(=O)O)c2n1 (stereo not drawn) [Compound 194] | < 5 | < 5 | < 0.1
Cc1cc(-c2cc(Cl)ccc2OCCn2c(C)nc3c(c2=O)CC(N2CCc4ncncc4C2)CC3)c2scc(C(=O)O)c2n1 (stereo not drawn) [Compound 157] | 5 to 20 | 5 to 20 | < 0.1
Cc1cc(-c2cc(Cl)ccc2OCCn2c(C)nc3c(c2=O)C[C@H](N(C)[C@H]2CC[C@](C)(O)CC2)CC3)c2scc(C(=O)NS(C)(=O)=O)c2n1 (single isomer, unassigned) [Compound 207] | > 20 | > 20 | < 0.1
Cc1cc(-c2cc(Cl)ccc2OCCn2c(C)nc3c(c2=O)CC(N2CCc4cc(C(F)(F)F)ccc4C2)CC3)c2scc(C(=O)O)c2n1 (stereo not drawn) [Compound 160] | < 5 | < 5 | < 0.1
Cc1cc(-c2cc(Cl)ccc2OCCn2c(C)nc3c(c2=O)CC(N(C)C2(C4CCC4)CC2)CC3)c2scc(C(=O)NS(C)(=O)=O)c2n1 (single isomer, unassigned) [Compound 231] | 5 to 20 | 5 to 20 | < 0.1
COC1[C@@H]2CC[C@H]1CN(C1CCc3nc(C)n(CCOc4ccc(Cl)cc4-c4cc(C)nc5c(C(=O)O)csc45)c(=O)c3C1)C2 (stereo partly drawn) [Compound 152] | < 5 | < 5 | < 0.1

The remaining lines, values ahead:

IC50 [1] [µM] | IC50 [2] [µM] | IC50 (human eIF4E protein) [µM] | SMILES
< 5 | < 5 | < 0.1 | Cc1cc(-c2cc(Cl)ccc2OCCn2c(C)nc3c(c2=O)CC(N(C)Cc2cnc(C)s2)CC3)c2scc(C(=O)O)c2n1 (stereo not drawn) [Compound 185]
< 5 | < 5 | < 0.1 | Cc1cc(-c2cc(Cl)ccc2OCCn2c(C)nc3c(c2=O)C[C@@H](N(C)C[C@H]2C[C@@H](C(F)(F)F)C2)CC3)c2scc(C(=O)O)c2n1 (stereo in doubt) [Compound 189]
< 5 | < 5 | < 0.1 | Cc1cc(-c2cc(Cl)ccc2OCCn2c(C)nc3c(c2=O)CC(N(C)C2CC4(C2)CC(F)(F)C4)CC3)c2scc(C(=O)O)c2n1 (stereo not drawn) [Compound 203]
> 20 | > 20 | < 0.1 | Cc1cc(-c2cc(Cl)ccc2OCCn2c(C)nc3c(c2=O)CC(N(C)Cc2cc[nH]n2)CC3)c2scc(C(=O)O)c2n1 (stereo not drawn) [Compound 186]
< 5 | < 5 | < 0.1 | Cc1cc(-c2cc(Cl)ccc2OCCn2c(C)nc3c(c2=O)CC(N(C)C[C@H]2C[C@@H](C(F)(F)F)C2)CC3)c2scc(C(=O)O)c2n1 (stereo partly drawn) [Compound 204]
5 to 20 | > 20 | 0.5 to 5 | Cc1cc(-c2cc(Cl)ccc2OCCn2c(C)nc3c(c2=O)CC(N(C)CC2CC(F)(F)C2)CC3)c2scc(C(=O)NCC(F)F)c2n1 (stereo not drawn) [Compound 150]

Source: patent US20240246918A1, “COMPOUNDS AND COMPOSITIONS AS EIF4E INHIBITORS AND THE USES THEREOF” (Ribometrix, Inc., priority 2022, published 2024)
